# According to PubChem BioAssay AID330 (DTP/NCI, 2004):
# Where “and” joins values, the source holds several entries; their conditions need not be identical. Equal entries are not always repeated. Inconclusive results and toxic doses are left out.
# System: P388 leukemia ip, CD2F1 mice, survival T/C
# Assay: NCI In Vivo Anticancer Drug Screen. Data for tumor model P388 Leukemia (intraperitoneal) in CD2F1 (CDF1) mice
# Settings: endpoint: median survival time, higher = longer survival
# In short: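 Mice carrying the transplanted tumor received test compound or vehicle. Survival was recorded in each group, and the value is the treated-group measurement divided by that of the vehicle-treated control group.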
# [1] = dose: 60.0 mg/kg/injection, schedule: Q01DX005 (ip), vehicle: saline with Tween-80
# [2] = dose: 120.0 mg/kg/injection, schedule: Q01DX005 (ip), vehicle: saline with Tween-80
# [3] = dose: 240.0 mg/kg/injection, schedule: Q01DX005 (ip), vehicle: saline with Tween-80
# [4] = dose: 50.0 mg/kg/injection, schedule: Q01DX009 (ip), vehicle: Klucel (hydroxypropylcellulose) (HPC)
structure (smiles),measurement,setting,value
CN(C)CCCN1c2ccccc2CCc2ccccc21,T/C,[1],115 % of control
same,T/C,[2],109 % of control
O=C(Nc1ccc(Cl)cc1)Nc1nnc2nc(C3(c4nc5nnc(NC(=O)Nc6ccc(Cl)cc6)n5[nH]c4=O)Cc4ccccc4C3=O)c(=O)[nH]n12,T/C,[1],103 % of control
same,T/C,[2],107 % of control
same,T/C,[3],98 % of control
CCCCCCCCCCCCCC[n+]1ccc(C(N)=O)cc1,T/C,"dose: 6.25 mg/kg/injection, schedule: Q01DX009 (ip), vehicle: saline with Tween-80",113 % of control
same,T/C,"dose: 12.5 mg/kg/injection, schedule: Q01DX009 (ip), vehicle: saline with Tween-80",109 % of control
same,T/C,"dose: 25.0 mg/kg/injection, schedule: Q01DX009 (ip), vehicle: saline with Tween-80",100 % of control
Cc1cc(C)[n+]2n1C(=O)C(c1ccccc1)=C2[O-],T/C,"dose: 50.0 mg/kg/injection, schedule: Q01DX005 (ip), vehicle: Klucel + Tween-80",101 % of control
same,T/C,"dose: 100.0 mg/kg/injection, schedule: Q01DX005 (ip), vehicle: Klucel + Tween-80",102 % of control
same,T/C,"dose: 200.0 mg/kg/injection, schedule: Q01DX005 (ip), vehicle: Klucel + Tween-80",101 % of control
N#CNC1=NC(c2ccccc2)CC=C1 (stereo unspecified),T/C,"dose: 50.0 mg/kg/injection, schedule: Q01DX009 (ip), vehicle: saline with Tween-80",102 % of control
same,T/C,"dose: 100.0 mg/kg/injection, schedule: Q01DX009 (ip), vehicle: saline with Tween-80",113 % of control
Cc1ncc(-c2ccccc2)c(N)n1,T/C,"dose: 50.0 mg/kg/injection, schedule: Q01DX009 (ip), vehicle: saline",91 % of control
same,T/C,"dose: 100.0 mg/kg/injection, schedule: Q01DX009 (ip), vehicle: saline",92 % of control
same,T/C,"dose: 200.0 mg/kg/injection, schedule: Q01DX009 (ip), vehicle: saline",102 % of control
Cc1c(Br)c(C)[n+]([O-])n1O,T/C,"dose: 60.0 mg/kg/injection, schedule: Q01DX005 (ip), vehicle: Klucel (hydroxypropylcellulose) (HPC)",99 % of control
same,T/C,"dose: 120.0 mg/kg/injection, schedule: Q01DX005 (ip), vehicle: Klucel (hydroxypropylcellulose) (HPC)",95 % of control
COc1cc(=O)cc2n(c1=O)CCC2,T/C,"dose: 60.0 mg/kg/injection, schedule: Q01DX005 (ip), vehicle: saline",94 % of control
same,T/C,"dose: 120.0 mg/kg/injection, schedule: Q01DX005 (ip), vehicle: saline",94 % of control
same,T/C,"dose: 240.0 mg/kg/injection, schedule: Q01DX005 (ip), vehicle: saline",92 % of control
CC(=O)OCc1c(COC(C)=O)c(-c2ccccc2)n2c1CCC2,T/C,"dose: 12.5 mg/kg/injection, schedule: Q01DX009 (ip), vehicle: Klucel (hydroxypropylcellulose) (HPC)",110 % of control
same,T/C,[4],87 % of control
CCCCCCC(O)CCCCCC,T/C,"dose: 100.0 mg/kg/injection, schedule: Q04DX003 (ip), vehicle: other",104 % of control
same,T/C,"dose: 200.0 mg/kg/injection, schedule: Q04DX003 (ip), vehicle: other",109 % of control
same,T/C,"dose: 400.0 mg/kg/injection, schedule: Q04DX003 (ip), vehicle: other",100 % of control
Cc1nc(C)c(Cl)c(OS(=O)(=O)CCCCl)c1Cl,T/C,"dose: 25.0 mg/kg/injection, schedule: Q01DX009 (ip), vehicle: Klucel (hydroxypropylcellulose) (HPC)",110 % of control (2×) and 92 % of control
same,T/C,"dose: 35.0 mg/kg/injection, schedule: Q01DX009 (ip), vehicle: Klucel (hydroxypropylcellulose) (HPC)",110 % of control and 95 % of control
same,T/C,[4],105 % of control and 120 % of control and 95 % of control
same,T/C,"dose: 75.0 mg/kg/injection, schedule: Q01DX009 (ip), vehicle: Klucel (hydroxypropylcellulose) (HPC)",94 % of control
Cc1cc2nc(CC(=O)c3ccccc3)c(CC(=O)c3ccccc3)nc2cc1C,T/C,"dose: 7.5 mg/kg/injection, schedule: Q01DX005 (ip), vehicle: saline with Tween-80",98 % of control
same,T/C,"dose: 15.0 mg/kg/injection, schedule: Q01DX005 (ip), vehicle: saline with Tween-80",95 % of control
CC1(C)C=C2OC(=O)CCC2(C)CC1 (stereo unspecified),T/C,"dose: 50.0 mg/kg/injection, schedule: Q01DX001 (ip), vehicle: saline with Tween-80",95 % of control
same,T/C,"dose: 100.0 mg/kg/injection, schedule: Q01DX001 (ip), vehicle: saline with Tween-80",118 % of control
same,T/C,"dose: 200.0 mg/kg/injection, schedule: Q01DX001 (ip), vehicle: saline with Tween-80",90 % of control
O=C(O)c1cc(S(=O)(=O)F)c(Cl)cc1Cl,T/C,[1],119 % of control
same,T/C,[2],104 % of control
same,T/C,[3],104 % of control
C[S+](C)CCCNC(=O)c1csc(-c2csc(N)n2)n1,T/C,"dose: 6.25 mg/kg/injection, schedule: Q01DX005 (ip), vehicle: water",100 % of control
same,T/C,"dose: 12.5 mg/kg/injection, schedule: Q01DX005 (ip), vehicle: water",96 % of control
same,T/C,"dose: 25.0 mg/kg/injection, schedule: Q01DX005 (ip), vehicle: water",96 % of control
